Measurements published in patent publication US9757337B2, “Multicompartmental lipid nanoparticles” (CENTRE NATIONAL DE LA RECHERCHE SCIENTIFIQUE—CNRS, priority 2013, dated 2017).

Test: Stability of quercetin in various fluids quantified by HPLC assay
Format: physicochemical
Method: To this end, the stability of quercetin in various fluids was quantified by means of an HPLC assay. The various fluids studied were simulated gastric fluid (SGF, US Pharmacopeia) at room temperature and at 37° C., simulated intestinal fluid (SIF, US Pharmacopeia), 10 mM HEPES buffer (pH 7.4) and room-temperature water.

stability in more acidic fluids compared with room-temperature water (more acidic fluids (SGF), samples over 24 hours): more stable
quercetin degraded (room-temperature water, within 17 hours): about 50%
SMILES: O=c1c(O)c(-c2ccc(O)c(O)c2)oc2cc(O)cc(O)c12 [quercetin]
